Data published in US10363239B2, “Method for inhibiting growth of cancer cells” (Pain Therapeutics, Inc., priority 2013, dated 2019).
Read-outs that look alike come from different tables or passages of the source.

How the values were obtained:
mu opiate receptor (MOR) = experiment: MOR agonist activity using [35S]GTPγS binding assay in striatal membranes; type: biochemical; conditions: for MOR agonist activity ([35S]GTPγS binding), FLNA-Binding Compound as Agonist 1 μM + BFNA: 1 μM compound + 1 μM β-funaltrexamine
Experimental: To assess the mu opiate receptor (MOR) agonist activity of positive compounds from the FLNA screening, compounds were tested in a [^35S]GTPγS binding assay using striatal membranes. […] This assay measures a functional consequence of receptor occupancy at one of the earliest receptor-mediated events. The assay permits traditional pharmacological parameters of potency, efficacy and antagonist affinity, with the advantage that agonist measures are not subjected to amplification or other modulation that may occur when analyzing parameters further downstream of the receptor.
Thus, striatal tissue was homogenized in 10 volumes of ice cold 25 mM HEPES buffer, pH 7.4, which contained 1 mM EGTA, 100 mM sucrose, 50 μg/ml leupeptin, 0.04 mM PMSF, 2 μg/ml soybean trypsin inhibitor and 0.2% 2-mercaptoethanol. The homogenates were centrifuged at 800×g for 5 minutes and the supernatants were centrifuged at 49,000×g for 20 minutes. The resulting pellets were suspended in 10 volume of reaction buffer, which contained 25 mM HEPES, pH 7.5, 100 mM NaCl, 50 μg/ml leupeptin, 2 μg/ml soybean trypsin inhibitor, 0.04 mM PMSF and 0.02% […].
The resultant striatal membrane preparation (200 μg) was admixed and maintained (incubated) at 30° C. for 5 minutes in reaction buffer as above that additionally contained 1 mM MgCl2 and 0.5 nM [^35S]GTPγS (0.1 μCi/assay, PerkinElmer Life and Analytical Sciences) in a total volume of 250 μl and continued for 5 minutes in the absence or presence of 0.1-10 μM of an assayed compound of interest. The reaction was terminated by dilution with 750 μl of ice-cold reaction buffer that contained 20 mM MgCl2 and 1 mM EGTA and immediate centrifugation at 16,000×g for 5 minutes.
The resulting pellet was solubilized by sonicating for 10 seconds in 0.5 ml of immunoprecipitation buffer containing 0.5% digitonin, 0.2% sodium cholate and 0.5% NP-40. Normal rabbit serum (1 μl) was added to 1 ml of lysate and incubated at 25° C. for 30 minutes. Nonspecific immune complexes were removed by incubation with 25 μl of protein A/G-conjugated agarose beads at 25° C. for 30 minutes followed by centrifugation at 5,000×g at 4° C. for 5 minutes. The supernatant was divided and separately incubated at 25° C. for 30 minutes with antibodies raised against Gαo proteins (1:1,000 dilutions).
The immunocomplexes so formed were collected by incubation at 25° C. for 30 minutes with 40 μl of agarose-conjugated protein A/G beads and centrifugation at 5,000×g at 4° C. for 5 minutes. The pellet was washed and suspended in buffer containing 50 mM Tris-HCl, pH 8.0, and 1% NP-40. The radioactivity in the suspension was determined by liquid scintillation spectrometry.

[1] = target: FLNA pentapeptide of SEQ ID NO: 1 (Bn-VAKGL) (Homo sapiens, UniProt P21333); experiment: FITC-NLX-based FLNA screening assay (inhibition of FITC-naloxone binding to Bn-VAKGL on streptavidin plates); conditions: 10 nM FITC-NLX
[2] = Series C-2, 0.1 μM compound, relative to DAMGO
[3] = Series C-2, 0.1 μM compound, [35S]GTPγS binding to Gαo, striatal membranes
[4] = Series C-2, 1 μM compound + 1 μM β-FNA
[5] = Series C-2, 1 μM compound + β-FNA, relative to DAMGO + BFNA
[6] = Series C-2, 1 μM compound, relative to DAMGO
[7] = Series C-2, 1 μM compound, [35S]GTPγS binding to Gαo, striatal membranes
[8] = FLNA-binding compound 0.01 μM, read-out: Percent Binding Inhibition
[9] = FLNA-binding compound 0.1 μM, read-out: Percent Binding Inhibition
[10] = FLNA-binding compound 1 μM, read-out: Percent Binding Inhibition
[11] = Series B, 0.1 μM compound, relative to DAMGO
[12] = Series B, 0.1 μM compound, [35S]GTPγS binding to Gαo, striatal membranes
[13] = Series B, 1 μM compound + 1 μM β-FNA
[14] = Series B, 1 μM compound + β-FNA, relative to DAMGO + BFNA
[15] = Series B, 1 μM compound, relative to DAMGO
[16] = Series B, 1 μM compound, [35S]GTPγS binding to Gαo, striatal membranes
[17] = read-out: Percent Binding Inhibition, FLNA-binding compound 0.01 μM
[18] = read-out: Percent Binding Inhibition, FLNA-binding compound 0.1 μM
[19] = read-out: Percent Binding Inhibition, FLNA-binding compound 1 μM
[20] = Series C-1, 0.1 μM compound, relative to DAMGO
[21] = Series C-1, 0.1 μM compound, [35S]GTPγS binding to Gαo, striatal membranes
[22] = Series C-1, 1 μM compound + 1 μM β-FNA
[23] = Series C-1, 1 μM compound + β-FNA, relative to DAMGO + BFNA
[24] = Series C-1, 1 μM compound, relative to DAMGO
[25] = Series C-1, 1 μM compound, [35S]GTPγS binding to Gαo, striatal membranes
[26] = 0.1 μM compound relative to DAMGO
[27] = 1 μM compound + BFNA relative to DAMGO + BFNA
[28] = 1 μM compound relative to DAMGO

| Compound | inhibition at 0.01 µM [1, 8] | inhibition at 0.1 µM [1, 9] | inhibition at 1 µM [1, 10] | % DAMGO (0.1 μM) (mu opiate receptor (MOR); [11]) | MOR agonist activity, percent [35S]GTPγS binding at the stated compound concentration (mu opiate receptor (MOR); [12]) | MOR agonist activity, percent [35S]GTPγS binding at the stated compound concentration (mu opiate receptor (MOR); [13]) | % DAMGO + BFNA (mu opiate receptor (MOR); [14]) | % DAMGO (1 μM) (mu opiate receptor (MOR); [15]) | MOR agonist activity, percent [35S]GTPγS binding at the stated compound concentration (mu opiate receptor (MOR); [16]) | inhibition at 0.01 µM [1, 17] | inhibition at 0.1 µM [1, 18] | inhibition at 1 µM [1, 19] | also measured |
| --- | --- | --- | --- | --- | --- | --- | --- | --- | --- | --- | --- | --- | --- |
| CCCCN1CCC2(CC1)OCCN2S(=O)(=O)c1ccc(OC)cc1 [Compound C0102M] | 52.3% | 53.1% | 56.6% |  |  |  |  |  |  |  |  |  | % DAMGO (0.1 μM) (mu opiate receptor (MOR); [2]): 78.6%; MOR agonist activity, percent [35S]GTPγS binding at the stated compound concentration (mu opiate receptor (MOR); [3]): 131.8%; MOR agonist activity, percent [35S]GTPγS binding at the stated compound concentration (mu opiate receptor (MOR); [4]): 150.4%; % DAMGO + BFNA (mu opiate receptor (MOR); [5]): 316.6%; % DAMGO (1 μM) (mu opiate receptor (MOR); [6]): 122.4%; MOR agonist activity, percent [35S]GTPγS binding at the stated compound concentration (mu opiate receptor (MOR); [7]): 272.0% |
| COc1c2c(cc3c1C(CC(=O)CCc1ccc(Cl)cc1)[N+](C)(C)CC3)OCO2 (stereo not drawn) [Compound B0017] |  |  |  | 58.9% | 99.6% | 49.6% | 75.2% | 45.6% | 122.0% | 28.3% | 36.6% | 44.6% |  |
| COc1ccc(CCC(O)CC2c3c(cc4c(c3OC)OCO4)CC[N+]2(C)C)cc1 (stereo not drawn) [Compound B0049] |  |  |  | 102.8% | 181.6% | 133.2% | 506.5% | 143.1% | 364.0% | 32.2% | 40.1% | 47.1% |  |
| COc1cccc(CC(=O)CC2c3c(cc4c(c3OC)OCO4)CC[N+]2(C)C)c1OC (stereo not drawn) [Compound B0038] |  |  |  | 94.2% | 147.5% | 117.1% | 359.2% | 88.7% | 205.3% | 41.2% | 50.1% | 57% |  |
| COc1c2c(cc3c1C(CC(=O)c1ccc(C#N)cc1)[N+](C)(C)CC3)OCO2 (stereo not drawn) [Compound B0001] |  |  |  | 77.4% | 128.2% | 28.0% | 43.1% | 74.9% | 202.3% | 37.1% | 48.8% | 54.3% |  |
| COc1ccc(C(=O)N2CCC3(CC2)OCCN3C(=O)c2ccc(OC)cc2)cc1 [Compound C0017] | 28.9% | 35.4% | 40.7% |  |  |  |  |  |  |  |  |  | % DAMGO (0.1 μM) (mu opiate receptor (MOR); [20]): 87.1%; Concentration of FLNA-Binding Compound as Agonist 0.1 μM (mu opiate receptor (MOR); [21]): 153.8%; Concentration of FLNA-Binding Compound as Agonist 1 μM + BFNA (mu opiate receptor (MOR); [22]): 94.1%; % DAMGO + BFNA (mu opiate receptor (MOR); [23]): 143.2%; % DAMGO (1 μM) (mu opiate receptor (MOR); [24]): 109.7%; Concentration of FLNA-Binding Compound as Agonist 1 μM (mu opiate receptor (MOR); [25]): 284.5% |
| COc1ccccc1CCC(=O)CC1c2c(cc3c(c2OC)OCO3)CC[N+]1(C)C (stereo not drawn) [Compound B0045] |  |  |  | 82.6% | 129.3% | 83.8% | 257.1% | 83.4% | 193.1% | 63.2% | 68.2% | 73.9% |  |
| CC1CCC(C(C)C)C(OCC(O)CN2CCN(CCc3ccccc3)CC2)C1 (stereo not drawn) [Compound A0020] | 37.8% | 38.8% | 45.8% |  |  |  |  |  |  |  |  |  | MOR agonist activity ([35S]GTPγS binding), FLNA-Binding Compound as Agonist 0.1 μM (mu opiate receptor (MOR); 0.1 μM compound): 168.6%; % DAMGO (0.1 μM) (mu opiate receptor (MOR); [26]): 100.9%; MOR agonist activity ([35S]GTPγS binding), FLNA-Binding Compound as Agonist 1 μM (mu opiate receptor (MOR); 1 μM compound): 217.4%; MOR agonist activity ([35S]GTPγS binding), FLNA-Binding Compound as Agonist 1 μM + BFNA (mu opiate receptor (MOR)): 67.4%; % DAMGO + BFNA (mu opiate receptor (MOR); [27]): 194.2%; % DAMGO (1 μM) (mu opiate receptor (MOR); [28]): 88.7% |
| OC(COc1ccc(Br)c(F)c1)CN1CCCCC1 (stereo not drawn) [Compound A0058] |  |  |  |  |  |  |  |  |  | 28.9% | 36.6% | 42.1% | MOR agonist activity ([35S]GTPγS binding), FLNA-Binding Compound as Agonist 0.1 μM (mu opiate receptor (MOR); 0.1 μM compound): 70.7%; % DAMGO (0.1 μM) (mu opiate receptor (MOR); [26]): 45.3%; MOR agonist activity ([35S]GTPγS binding), FLNA-Binding Compound as Agonist 1 μM (mu opiate receptor (MOR); 1 μM compound): 244.3%; MOR agonist activity ([35S]GTPγS binding), FLNA-Binding Compound as Agonist 1 μM + BFNA (mu opiate receptor (MOR)): 59.9%; % DAMGO + BFNA (mu opiate receptor (MOR); [27]): 150.1%; % DAMGO (1 μM) (mu opiate receptor (MOR); [28]): 106.0% |
| O=S(=O)(c1ccc(OC(F)(F)F)cc1)N1CCC2(CC1)OCCN2S(=O)(=O)c1ccc(OC(F)(F)F)cc1 [Compound C0006] |  |  |  |  |  |  |  |  |  | 41.6% | 46.8% | 51.8% | % DAMGO (0.1 μM) (mu opiate receptor (MOR); [20]): 70.6%; Concentration of FLNA-Binding Compound as Agonist 0.1 μM (mu opiate receptor (MOR); [21]): 121.5%; Concentration of FLNA-Binding Compound as Agonist 1 μM + BFNA (mu opiate receptor (MOR); [22]): 4.6%; % DAMGO + BFNA (mu opiate receptor (MOR); [23]): 7.2%; % DAMGO (1 μM) (mu opiate receptor (MOR); [24]): 73.8%; Concentration of FLNA-Binding Compound as Agonist 1 μM (mu opiate receptor (MOR); [25]): 204.0% |
| CCOC(=O)CN1CCC2(CC1)OCCN2S(=O)(=O)c1ccc(C(C)=O)cc1 [Compound C0099M] | 46.9% | 53.3% | 56% |  |  |  |  |  |  |  |  |  | % DAMGO (0.1 μM) (mu opiate receptor (MOR); [2]): 93.8%; MOR agonist activity, percent [35S]GTPγS binding at the stated compound concentration (mu opiate receptor (MOR); [3]): 157.2%; MOR agonist activity, percent [35S]GTPγS binding at the stated compound concentration (mu opiate receptor (MOR); [4]): 114.7%; % DAMGO + BFNA (mu opiate receptor (MOR); [5]): 241.5%; % DAMGO (1 μM) (mu opiate receptor (MOR); [6]): 88.0%; MOR agonist activity, percent [35S]GTPγS binding at the stated compound concentration (mu opiate receptor (MOR); [7]): 195.7% |
